# Data from publication PMC6499206, “Quantification of Volatile Metabolites Derived From Garlic (Allium sativum) in Human Urine” (Frontiers in Nutrition, 2019).
# Assay: Quantification of garlic-derived metabolites in human urine after ingestion of 3 g raw garlic (SIDA, SAFE, HRGC-MS / HRGC-GC-MS)
# Format: in vivo
# Parameters: metabolite in urine related to creatinine: unit not given here
# Details: for metabolite concentration in urine, creatinine-normalized / metabolite concentration in urine / time of highest concentration in urine after garlic consumption / highest detected concentration of the sample series: 3 g raw garlic; for highest detected concentration of the sample series: same bulb
# Excerpt: Human urine samples were obtained from 18 volunteers (age 22–38 years, mean 27 years; 11 females, 7 males); thereby, one volunteer conducted the whole experimental series twice. At the time of examination, volunteers reported no known illness that might have potentially influenced the metabolism or the excretion of urine. The test persons were instructed to avoid foods that were rich in sulfur-containing substances at the testing day as well as 2 days preceding the testing day, namely garlic, onion, wild garlic, chives, cabbage, and leek, and were only allowed to consume the garlic sample provided in the course of the experiments. Additionally, subjects were asked to keep records of the food (including food supplements) and beverages they consumed during these 3 testing days. Generally, the overall panelists' requirements were in accordance with our previous studies ([5], [16]).
# On the sampling day, the outer garlic cloves of a whole garlic bulb were peeled and cut into ~3 mm cubes by using a garlic cutter (Genius GmbH, Limburg/Lahn, Germany). Subsequently these cubes were thoroughly mixed and aliquoted into 3 g portions. Three to four test persons conducted the experiment at the same day. Each test person was asked to ingest a garlic portion of 3 g. In total, eight consecutive urine samples were provided by each test person, comprising one whole urine set. The samples were collected in sterile brown glass bottles, with sampling times as follows: one sample was provided directly prior to garlic consumption. The series of the second to eighth sample was then obtained at about 0.5, 1, 2, 4, 6, 8, and 24 h after garlic consumption, respectively. Between the first urine sample (prior to garlic consumption) and the seventh urine sample (8 h after garlic consumption) test persons only spent urine at the specific time points mentioned before. Another sample was provided at the next morning (24 h after garlic consumption). Between the samples provided 8 and 24 h after garlic consumption no urine was collected. All samples were immediately placed into a −80°C freezer and were kept frozen until further analysis.
# The samples of each set were termed according to their sampling time. The following list provides the time intervals that are related to the respective sample name: • - pre: before garlic consumption • - 0.5 h post: 0.4–0.8 h after garlic consumption • - 1 h post: 0.9–1.3 h after garlic consumption • - 2 h post: 1.8 h−2.2 h after garlic consumption • - 4 h post: 3.8–4.4 h after garlic consumption • - 6 h post: 5.8–6.4 h after garlic consumption • - 8 h post: 7.8–8.4 h after garlic consumption • - 24 h post: 23.8–25.6 h after garlic consumption
# A creatinine kit (Labor+Technik Eberhard Lehmann GmbH, Berlin, Germany) was used to determine the creatinine content in each urine sample. The determination principle of this kit is based on the reaction of creatinine with picric acid under basic conditions (Jaffé reaction). The formed complex was detected photometrically at a wavelength of 492 nm.
# For quantification purposes, the deuterated standards ^2H3-AMS, ^2H3-AMSO, and ^2H3-AMSO2 were added to the sample and stirred for 10 min. Subsequently, DCM was added in a ratio of 1:2 (DCM/human urine; v/v) and this solution was stirred for further 30 min at room temperature. To isolate the volatile fraction from the urine samples we then applied SAFE-distillation ([17]), thereby distilling the respective samples at 50°C. After completion of the distillation process, 10 mL of DCM were applied in each case to rinse the SAFE apparatus and to ensure complete transition of the volatile compounds. This process was repeated with another 10 mL of DCM. After thawing, the obtained aqueous distillate phase was extracted three times with 25 mL DCM. The organic phases were combined, dried over anhydrous Na2SO4 and concentrated to a total volume of 100 μL by means of Vigreux distillation and subsequent micro-distillation at 50°C. […]
smiles,measurement,setting,value
"C=CCSC [AMS, allyl methyl sulfide]","metabolite concentration in urine, creatinine-normalized","U XII, 2 h post (1.85 h)",1.3 µg/mmol creatinine
same,metabolite concentration in urine,"U XII, 4 h post (3.80 h)",0.5 µg/kg
same,"metabolite concentration in urine, creatinine-normalized","U XII, 4 h post (3.80 h)",0.2 µg/mmol creatinine
same,metabolite concentration in urine,"U XII, 6 h post (5.82 h)",0.4 µg/kg
same,"metabolite concentration in urine, creatinine-normalized","U XII, 6 h post (5.82 h)",0.1 µg/mmol creatinine
same,metabolite concentration in urine,"U XII, 8 h post (7.82 h)",0.3 µg/kg
same,"metabolite concentration in urine, creatinine-normalized","U XII, 8 h post (7.82 h)",0.1 µg/mmol creatinine
same,metabolite concentration in urine,"U XII, 24 h post (23.92 h)",traces^1
same,"metabolite concentration in urine, creatinine-normalized","U XII, 24 h post (23.92 h)",traces^1
same,metabolite concentration in urine,"U XII, pre (-0.08 h)",traces^1
same,"metabolite concentration in urine, creatinine-normalized","U XII, pre (-0.08 h)",traces^1
same,metabolite concentration in urine,"U XIII, 0.5 h post (0.42 h)",0.2 µg/kg
same,"metabolite concentration in urine, creatinine-normalized","U XIII, 0.5 h post (0.42 h)",0.1 µg/mmol creatinine
same,metabolite concentration in urine,"U XIII, 1 h post (0.92 h)",0.9 µg/kg
same,"metabolite concentration in urine, creatinine-normalized","U XIII, 1 h post (0.92 h)",0.3 µg/mmol creatinine
same,metabolite concentration in urine,"U XIII, 2 h post (1.92 h)",1.0 µg/kg
same,"metabolite concentration in urine, creatinine-normalized","U XIII, 2 h post (1.92 h)",0.3 µg/mmol creatinine
same,metabolite concentration in urine,"U XIII, 4 h post (3.92 h)",0.8 µg/kg
same,"metabolite concentration in urine, creatinine-normalized","U XIII, 4 h post (3.92 h)",0.2 µg/mmol creatinine
same,metabolite concentration in urine,"U XIII, 6 h post (5.92 h)",0.4 µg/kg
same,"metabolite concentration in urine, creatinine-normalized","U XIII, 6 h post (5.92 h)",0.04 µg/mmol creatinine
same,metabolite concentration in urine,"U XIII, 8 h post (7.92 h)",0.3 µg/kg
same,"metabolite concentration in urine, creatinine-normalized","U XIII, 8 h post (7.92 h)",0.03 µg/mmol creatinine
same,metabolite concentration in urine,"U XIII, 24 h post (23.92 h)",traces^1
same,"metabolite concentration in urine, creatinine-normalized","U XIII, 24 h post (23.92 h)",traces^1
same,metabolite concentration in urine,"U XIII, pre (-0.08 h)",< LOD^1
same,"metabolite concentration in urine, creatinine-normalized","U XIII, pre (-0.08 h)",< LOD^1
same,amounts detected in samples collected prior to garlic intervention,"Urine III, VII, VIII, XI, XII, XVI, XVII, pre-ingestion samples",≤ 0.2 μg/mmol creatinine
same,time of highest concentration in urine after garlic consumption,Urine VIII,0.5 h
same,variation factor of the concentration maxima between test persons,"Urine XIII-XVI, highest vs lowest maximum",up to 3.2
same,highest detected concentration of the sample series,Urine XIII,0.3 μg/mmol creatinine
same,highest detected concentration of the sample series,Urine XIV (AMS: printed Urine UIV),0.4 μg/mmol creatinine
same,highest detected concentration of the sample series,Urine XV,1.0 μg/mmol creatinine
same,time of highest concentration in urine after garlic consumption,Urine XVI,4 h
same,highest detected concentration of the sample series,Urine XVI,0.3 μg/mmol creatinine
same,metabolite in urine related to creatinine,"urine set U XIX, 0.5 h post (0.50 h), garlic 3.1133 g",0.1
same,metabolite in urine related to creatinine,"urine set U XIX, 1 h post (1.00 h), garlic 3.1133 g",1.5
same,metabolite in urine related to creatinine,"urine set U XIX, 2 h post (2.00 h), garlic 3.1133 g",0.4
same,metabolite in urine related to creatinine,"urine set U XIX, 4 h post (4.00 h), garlic 3.1133 g",0.2
same,metabolite in urine related to creatinine,"urine set U XIX, 6 h post (6.20 h), garlic 3.1133 g",0.1
same,metabolite in urine related to creatinine,"urine set U XIX, 8 h post (7.93 h), garlic 3.1133 g",0.1
same,metabolite in urine related to creatinine,"urine set U XIX, 24 h post (23.98 h), garlic 3.1133 g",0.02
same,metabolite in urine related to creatinine,"urine set U XIX, pre (-0.07 h), garlic 3.1133 g",< LOD^1
same,metabolite in urine related to creatinine,"urine set U XVII, 0.5 h post (0.58 h), garlic 3.1559 g",0.01
same,metabolite in urine related to creatinine,"urine set U XVII, 1 h post (1.00 h), garlic 3.1559 g",0.1
same,metabolite in urine related to creatinine,"urine set U XVII, 2 h post (2.17 h), garlic 3.1559 g",0.3
same,metabolite in urine related to creatinine,"urine set U XVII, 4 h post (4.00 h), garlic 3.1559 g",0.2
same,metabolite in urine related to creatinine,"urine set U XVII, 6 h post (6.08 h), garlic 3.1559 g",0.02
same,metabolite in urine related to creatinine,"urine set U XVII, 8 h post (8.00 h), garlic 3.1559 g",0.02
same,metabolite in urine related to creatinine,"urine set U XVII, 24 h post (23.92 h), garlic 3.1559 g",traces^1
same,metabolite in urine related to creatinine,"urine set U XVII, pre (-0.08 h), garlic 3.1559 g",traces^1
same,metabolite in urine related to creatinine,"urine set U XVIII, 0.5 h post (0.63 h), garlic 3.1981 g",0.2
same,metabolite in urine related to creatinine,"urine set U XVIII, 1 h post (1.05 h), garlic 3.1981 g",0.3
same,metabolite in urine related to creatinine,"urine set U XVIII, 2 h post (2.00 h), garlic 3.1981 g",0.6
same,metabolite in urine related to creatinine,"urine set U XVIII, 4 h post (3.97 h), garlic 3.1981 g",0.4
same,metabolite in urine related to creatinine,"urine set U XVIII, 6 h post (5.97 h), garlic 3.1981 g",0.1
same,metabolite in urine related to creatinine,"urine set U XVIII, 8 h post (8.30 h), garlic 3.1981 g",0.4
same,metabolite in urine related to creatinine,"urine set U XVIII, 24 h post (24.13 h), garlic 3.1981 g",traces^1
same,metabolite in urine related to creatinine,"urine set U XVIII, pre (-0.08 h), garlic 3.1981 g",< LOD^1
